Tests used:
A2780 = assay: Antiproliferative activity against human A2780 cells incubated for 168 hrs by SRB method; assay type: functional, cell-based; settings: A2780, 168 h
[1] = Inhibition of ND1 transcript level in human A2780 cells at 500 nM measured after 12 hrs by RT-qPCR analysis relative to control; assay type: functional
[2] = Apparent permeability across apical to basolateral side in human Caco-2 cells at 3 uM incubated for 2 hrs by LC-MS/MS analysis; assay type: ADME, cell-based

Row | IC50 (A2780) [nM] | Papp A→B at 2 h, 3 µM [2] [×10⁻⁶ cm/s] | Structure (SMILES) | inhibition at 0.5 µM [1] [%]
1 | 172 |  | C[C@@H](Oc1ccc2c(-c3ccc(F)cc3Cl)cc(=O)oc2c1)C(=O)N1CCN(C)CC1 | 28
2 | 291 |  | C[C@@H](Oc1ccc2c(-c3ccc(F)cc3Cl)cc(=O)oc2c1)C(=O)N1CCS(=O)(=O)CC1 | 35
3 | 2520 |  | C[C@@H](Oc1ccc2c(-c3ccc(F)cc3Cl)cc(=O)oc2c1)C(=O)NCCN1CCS(=O)(=O)CC1 | 86
4 | 758 |  | C[C@@H](Oc1ccc2c(-c3ccc(F)cc3Cl)cc(=O)oc2c1)C(=O)N1CC2(COC2)C1 | 68
5 | 152 |  | COCCNC(=O)[C@@H](C)Oc1ccc2c(-c3ccc(F)cc3Cl)cc(=O)oc2c1 | 25
6 | 1220 |  | C[C@@H](Oc1ccc2c(-c3ccc(F)cc3Cl)cc(=O)oc2c1)C(=O)NCCN1CCOCC1 | 82
7 | 822 |  | C[C@@H](Oc1ccc2c(-c3ccc(F)cc3Cl)cc(=O)oc2c1)C(=O)NCCC1CCOCC1 | 73
8 | 282 |  | C[C@@H](Oc1ccc2c(-c3ccc(F)cc3Cl)cc(=O)oc2c1)C(=O)NCCN | 26
9 | 112 |  | C[C@@H](Oc1ccc2c(-c3ccc(F)cc3Cl)cc(=O)oc2c1)C(=O)N1CC2CC(C1)N2 | 24
10 | 93 |  | C[C@@H](Oc1ccc2c(-c3ccc(F)cc3Cl)cc(=O)oc2c1)C(=O)N1CCOCC1 | 25
11 | 208 |  | C[C@@H](CO)NC(=O)[C@@H](C)Oc1ccc2c(-c3ccc(F)cc3Cl)cc(=O)oc2c1 | 32
12 | 181 |  | CC(=O)NCCNC(=O)[C@@H](C)Oc1ccc2c(-c3ccc(F)cc3Cl)cc(=O)oc2c1 | 26
13 | 432 |  | C[C@@H](Oc1ccc2c(-c3ccc(F)cc3Cl)cc(=O)oc2c1)C(=O)N1CCC[C@H]1CO | 42
14 | 65 |  | C[C@@H](Oc1ccc2c(-c3ccc(F)cc3Cl)cc(=O)oc2c1)C(=O)N1C2CCC1CNC2 | 15
15 | 225 |  | CC(=O)N1CCN(C(=O)[C@@H](C)Oc2ccc3c(-c4ccc(F)cc4Cl)cc(=O)oc3c2)CC1 | 27
16 | 302 |  | C[C@@H](Oc1ccc2c(-c3ccc(F)cc3Cl)cc(=O)oc2c1)C(=O)N1CCSCC1 | 34
17 | 894 |  | C[C@@H](Oc1ccc2c(-c3ccc(F)cc3Cl)cc(=O)oc2c1)C(=O)Nc1ccccn1 | 77
18 | 123 |  | C[C@@H](Oc1ccc2c(-c3ccc(F)cc3Cl)cc(=O)oc2c1)C(=O)N1CCNCC1 | 25
19 | 178 |  | C[C@@H](Oc1ccc2c(-c3ccc(F)cc3Cl)cc(=O)oc2c1)C(=O)NCCCO | 22
20 | 135 |  | C[C@@H](Oc1ccc2c(-c3ccc(F)cc3Cl)cc(=O)oc2c1)C(=O)NCCO | 23
21 | 1220 |  | C[C@@H](Oc1ccc2c(-c3ccc(F)cc3Cl)cc(=O)oc2c1)C(=O)Nc1ncco1 | 81
22 | 200 |  | C[C@@H](Oc1ccc2c(-c3ccc(F)cc3Cl)cc(=O)oc2c1)C(=O)NCCN(C)C | 31
23 | 405 |  | C[C@@H](Oc1ccc2c(-c3ccc(F)cc3Cl)cc(=O)oc2c1)C(=O)NCc1ccco1 | 41

Continued, molecule first:

Row | Structure (SMILES) | IC50 (A2780) [nM] | Papp A→B at 2 h, 3 µM [2] [×10⁻⁶ cm/s] | inhibition at 0.5 µM [1] [%]
24 | C[C@@H](Oc1cccc(-c2ccc(F)cc2Cl)c1)C(=O)N1CCC[C@H](C(=O)O)C1 | > 10000 |  | 95
25 | C[C@@H](Oc1ccc2c(ccn2-c2ccc(F)cc2Cl)c1)C(=O)N1CCC[C@H](C(=O)O)C1 | > 10000 |  | 97
26 | C[C@@H](Oc1ccc2c(-c3ccc(Cl)cc3)cc(=O)oc2c1)C(=O)N1CC2CCC(C1)N2 |  |  | 24
27 | C[C@@H](Oc1ccc2c(-c3ccc(F)cc3Cl)ncnc2c1)C(=O)N1CCC[C@H](C(=O)O)C1 | > 10000 |  | 93
28 | O=C(O)[C@H]1CCCN(C(=O)C(F)(F)Oc2ccc3c(-c4ccc(F)cc4Cl)cc(=O)oc3c2)C1 | 322 |  | 37
29 | O=C(O)[C@H]1CCCN(C(=O)C2CC(Oc3ccc4c(-c5ccc(F)cc5Cl)cc(=O)oc4c3)C2)C1 (stereo not given in full) | > 10000 |  | 101
30 | C[C@@H](Oc1ccc2c(C34C[C@H]5C[C@H](C3)C[C@@H](C4)C5)cc(=O)oc2c1)C(=O)N1CC2CCC(C1)N2 | 92 |  | 22
31 | Cc1cc(Cl)ccc1-c1cc(=O)oc2cc(O[C@H](C)C(=O)N3CC4CCC(C3)N4)ccc12 | 58 |  | 12
32 | C[C@@H](Oc1ccc2c(C3CCCCC3)cc(=O)oc2c1)C(=O)N1CC2CCC(C1)N2 | 252 |  | 31
33 | C[C@@H](Oc1ccc2c(-c3ccc(F)cc3Cl)cccc2c1)C(=O)N1CCC[C@H](C(=O)O)C1 | 652 |  | 45
34 | Cc1cc(F)ccc1-c1cc(=O)oc2cc(O[C@H](C)C(=O)N3CC4CCC(C3)N4)ccc12 | 42 |  | 12
35 | C[C@@H](Oc1ccc2c(-c3cccc(F)c3)cc(=O)oc2c1)C(=O)N1CC2CCC(C1)N2 | 866 |  | 75
36 | C[C@@H](Oc1ccc2c(-c3ccc(F)cc3Cl)cc(=O)[nH]c2c1)C(=O)N1CCC[C@H](C(=O)O)C1 | > 10000 |  | 88
37 | C[C@@H](Oc1ccc2c(-c3cccc4ccccc34)cc(=O)oc2c1)C(=O)N1CC2CCC(C1)N2 | 562 |  | 67
38 | C[C@@H](Oc1ccc(C(=O)c2ccc(F)cc2Cl)cc1)C(=O)N1CCC[C@H](C(=O)O)C1 | > 10000 |  | 99
39 | C[C@@H](Oc1ccc2c(-c3cc4ccccc4s3)cc(=O)oc2c1)C(=O)N1CC2CCC(C1)N2 | 1620 |  | 85
40 | C[C@H](Oc1ccc2c(-c3ccc(F)cc3Cl)cc(=O)oc2c1)C(=O)N1CCC[C@H](C(=O)O)C1 | 287 |  | 34
41 | O=C(O)[C@H]1CCCN(C(=O)COc2ccc3c(-c4ccc(F)cc4Cl)cc(=O)oc3c2)C1 | 373 |  | 39
42 | C[C@@H](Oc1ccc2c(-c3ccc(Cl)cc3Cl)cc(=O)oc2c1)C(=O)N1CC2CCC(C1)N2 | 56 |  | 24

Row | Structure (SMILES) | IC50 (A2780) [nM] | Papp A→B at 2 h, 3 µM [2] [×10⁻⁶ cm/s] | inhibition at 0.5 µM [1] [%]
43 | CC(C)(Oc1ccc2c(-c3ccc(F)cc3Cl)cc(=O)oc2c1)C(=O)N1CCC[C@H](C(=O)O)C1 | 562 |  | 43
44 | C[C@@H](Oc1ccc2c(-c3ccccc3Cl)cc(=O)oc2c1)C(=O)N1CC2CCC(C1)N2 | 52 |  | 15
45 | CC(C)c1cc(=O)oc2cc(O[C@H](C)C(=O)N3CC4CCC(C3)N4)ccc12 | 2230 |  | 93
46 | C[C@@H](Oc1ccc2c(-c3ccc(F)cc3)cc(=O)oc2c1)C(=O)N1CC2CCC(C1)N2 | 453 |  | 44
47 | Cc1ccc(-c2cc(=O)oc3cc(O[C@H](C)C(=O)N4CC5CCC(C4)N5)ccc23)c(Cl)c1 | 131 |  | 28
48 | Cc1ccccc1-c1cc(=O)oc2cc(O[C@H](C)C(=O)N3CC4CCC(C3)N4)ccc12 | 31 |  | 8
49 | Nc1cc(N2CCCCC2)nc(N)[n+]1[O-] [MINOXIDIL] |  | 6.79 | 
50 | C[C@@H](Oc1ccc2c(-c3ccc(F)cc3Cl)csc2c1)C(=O)N1CCC[C@H](C(=O)O)C1 | > 10000 |  | 89
51 | O=C(O)[C@H]1CCCN(C(=O)C2(Oc3ccc4c(-c5ccc(F)cc5Cl)cc(=O)oc4c3)CCC2)C1 | 692 |  | 42
52 | C[C@@H](Oc1ccc2c(-c3ccsc3)cc(=O)oc2c1)C(=O)N1CC2CCC(C1)N2 | 129 |  | 24
53 | Cc1ccc(-c2cc(=O)oc3cc(O[C@H](C)C(=O)N4CC5CCC(C4)N5)ccc23)cc1 | 62 |  | 11
54 | Cc1cc(C)c(-c2cc(=O)oc3cc(O[C@H](C)C(=O)N4CC5CCC(C4)N5)ccc23)c(C)c1 | 74 |  | 16
55 | C[C@@H](Oc1ccc2c(-c3ccccc3F)cc(=O)oc2c1)C(=O)N1CC2CCC(C1)N2 | 216 |  | 33
56 | C[C@@H](Oc1ccc2c(-c3ccncc3)cc(=O)oc2c1)C(=O)N1CC2CCC(C1)N2 | 832 |  | 78
57 | C[C@@H](Oc1ccc2c(-c3cccc(Cl)c3)cc(=O)oc2c1)C(=O)N1CC2CCC(C1)N2 | 246 |  | 32
58 | Cc1cccc(-c2cc(=O)oc3cc(O[C@H](C)C(=O)N4CC5CCC(C4)N5)ccc23)c1 | 125 |  | 25
59 | C[C@@H](Oc1ccc2c(-c3ccc(F)cc3Cl)cc(=O)oc2c1)C(=O)N1CC2CCC(C1)N2 | 43 |  | 8
60 | C[C@@H](Oc1ccc2c(-c3ccccc3)cc(=O)oc2c1)C(=O)N1CC2CCC(C1)N2 | 423 |  | 43
61 | C[C@@H](Oc1ccc2c(-c3ccc(F)cc3Cl)coc2c1)C(=O)N1CCC[C@H](C(=O)O)C1 | > 10000 |  | 105

— ChEMBL document CHEMBL5380844, “Discovery of a Novel, Potent, Orally Active, and Safe Inhibitor Targeting Human Mitochondrial RNA Polymerase” (J Med Chem, 2023)
